# Laboratory results as given in the supplement of paper PMC5662764.
# ± gives the standard deviation of the averaged measurements.
# Assays:
# Test in all cases: normalised growth rate inhibition (GR value) relative to DMSO control (GR (1 = untreated growth, 0 = cytostasis, <0 = cytotoxic)); higher = less growth inhibition
# Conditions in all cases: 72 h
# [1] = tested on: SKBR3
# Procedure: (§1)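 Breast cancer cell lines (BT-20, Hs 578T, MCF 10A, MCF7, MDA-MB-231, SK-BR-3) were plated in 384-well plates and treated 24 h later with drugs at six concentrations (0.04-10 µM). Viable cells were counted by Hoechst/dead-cell-stain imaging at 0 and 72 h. Counts were normalised to DMSO controls on the same plate to give the relative cell count and the growth-rate inhibition (GR) value; technical plate triplicates were averaged for each biological replicate.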
# [2] = tested on: BT20
# Procedure: as §1
# [3] = tested on: MDAMB231
# Procedure: as §1
# [4] = tested on: MCF7
# Procedure: as §1
# [5] = tested on: MCF10A
# Procedure: as §1
# [6] = tested on: HS578T
# Procedure: as §1
SMILES,normalised growth rate inhibition ([1]; 0.04 µM),normalised growth rate inhibition ([1]; 0.12 µM),normalised growth rate inhibition ([1]; 0.37 µM),normalised growth rate inhibition ([1]; 1.11 µM),normalised growth rate inhibition ([1]; 3.33 µM),normalised growth rate inhibition ([1]; 10 µM),normalised growth rate inhibition ([2]; 0.04 µM),normalised growth rate inhibition ([2]; 0.12 µM),normalised growth rate inhibition ([2]; 0.37 µM),normalised growth rate inhibition ([2]; 1.11 µM),normalised growth rate inhibition ([2]; 3.33 µM),normalised growth rate inhibition ([2]; 10 µM),normalised growth rate inhibition ([3]; 0.04 µM),normalised growth rate inhibition ([3]; 0.12 µM),normalised growth rate inhibition ([3]; 0.37 µM),normalised growth rate inhibition ([3]; 1.11 µM),normalised growth rate inhibition ([3]; 3.33 µM),normalised growth rate inhibition ([3]; 10 µM),normalised growth rate inhibition ([4]; 0.04 µM),normalised growth rate inhibition ([4]; 0.12 µM),normalised growth rate inhibition ([4]; 0.37 µM),normalised growth rate inhibition ([4]; 1.11 µM),normalised growth rate inhibition ([4]; 3.33 µM),normalised growth rate inhibition ([4]; 10 µM),normalised growth rate inhibition ([5]; 0.04 µM),normalised growth rate inhibition ([5]; 0.12 µM),normalised growth rate inhibition ([5]; 0.37 µM),normalised growth rate inhibition ([5]; 1.11 µM),normalised growth rate inhibition ([5]; 3.33 µM),normalised growth rate inhibition ([5]; 10 µM),normalised growth rate inhibition ([6]; 0.04 µM),normalised growth rate inhibition ([6]; 0.12 µM),normalised growth rate inhibition ([6]; 0.37 µM),normalised growth rate inhibition ([6]; 1.11 µM),normalised growth rate inhibition ([6]; 3.33 µM),normalised growth rate inhibition ([6]; 10 µM)
Cc1cc(Nc2cc(N3CCN(C)CC3)nc(Sc3ccc(NC(=O)C4CC4)cc3)n2)n[nH]1 [tozasertib],-0.143 ± 0.11,-0.117 ± 0.076,-0.0975 ± 0.11,-0.082 ± 0.1,-0.0918 ± 0.1,-0.044 ± 0.1,0.385 ± 0.12,0.0628 ± 0.1,-0.0205 ± 0.094,-0.0318 ± 0.12,-0.0355 ± 0.11,-0.0179 ± 0.11,0.0769 ± 0.023,0.056 ± 0.045,0.0918 ± 0.037,0.0708 ± 0.039,0.0979 ± 0.038,0.1 ± 0.13,0.0704 ± 0.017,0.0656 ± 0.024,0.0723 ± 0.044,0.0794 ± 0.022,0.0768 ± 0.026,0.0394 ± 0.0083,0.395 ± 0.2,0.145 ± 0.087,0.124 ± 0.056,0.118 ± 0.064,0.0967 ± 0.04,0.0692 ± 0.053,0.123 ± 0.11,0.0776 ± 0.12,0.108 ± 0.13,0.0732 ± 0.11,0.105 ± 0.12,0.0498 ± 0.077
CCOc1cc2ncc(C#N)c(Nc3ccc(F)c(Cl)c3)c2cc1NC(=O)/C=C/CN(C)C [pelitinib],0.618 ± 0.21,0.332 ± 0.21,-0.0906 ± 0.18,-0.0946 ± 0.17,-0.052 ± 0.16,-0.227 ± 0.096,0.966 ± 0.066,0.877 ± 0.099,0.7676 ± 0.006,0.697 ± 0.037,0.594 ± 0.13,-0.241 ± 0.14,1.05 ± 0.042,1.03 ± 0.051,0.88 ± 0.043,0.75 ± 0.11,0.318 ± 0.18,-0.143 ± 0.073,1.06 ± 0.061,1.03 ± 0.12,0.935 ± 0.068,0.763 ± 0.14,0.33 ± 0.14,-0.164 ± 0.085,0.542 ± 0.25,0.267 ± 0.27,0.115 ± 0.042,0.129 ± 0.04,0.111 ± 0.042,-0.017 ± 0.046,0.9931 ± 0.0014,0.956 ± 0.052,0.841 ± 0.042,0.79 ± 0.035,0.569 ± 0.33,-0.122 ± 0.026
CC(=O)Nc1cccc(-n2c(=O)n(C3CC3)c(=O)c3c(Nc4ccc(I)cc4F)n(C)c(=O)c(C)c32)c1 [trametinib],0.503 ± 0.17,0.607 ± 0.08,0.565 ± 0.14,0.613 ± 0.11,0.624 ± 0.12,0.631 ± 0.16,0.71 ± 0.046,0.78 ± 0.049,0.743 ± 0.047,0.717 ± 0.053,0.683 ± 0.019,0.762 ± 0.066,0.0906 ± 0.041,0.129 ± 0.1,0.117 ± 0.072,0.11 ± 0.072,0.11 ± 0.082,0.128 ± 0.11,0.364 ± 0.029,0.365 ± 0.027,0.36 ± 0.011,0.387 ± 0.03,0.427 ± 0.0076,0.425 ± 0.013,0.152 ± 0.076,0.178 ± 0.068,0.182 ± 0.083,0.202 ± 0.071,0.206 ± 0.058,0.231 ± 0.058,0.261 ± 0.05,0.203 ± 0.071,0.194 ± 0.091,0.186 ± 0.088,0.179 ± 0.075,0.198 ± 0.091
CN(c1ccccc1CNc1nc(Nc2ccc3c(c2)CC(=O)N3)ncc1C(F)(F)F)S(C)(=O)=O,1.04 ± 0.024,0.653 ± 0.081,0.306 ± 0.017,0.0323 ± 0.071,-0.0178 ± 0.071,-0.141 ± 0.18,0.902 ± 0.043,0.763 ± 0.035,0.414 ± 0.12,0.121 ± 0.12,0.0389 ± 0.12,-0.19 ± 0.21,0.913 ± 0.058,0.78 ± 0.082,0.49 ± 0.2,0.241 ± 0.13,0.11 ± 0.13,-0.197 ± 0.22,0.742 ± 0.065,0.471 ± 0.1,0.184 ± 0.078,0.0628 ± 0.026,-0.0235 ± 0.037,-0.28 ± 0.03,0.744 ± 0.029,0.501 ± 0.056,0.233 ± 0.087,0.106 ± 0.019,0.0578 ± 0.032,-0.154 ± 0.16,0.761 ± 0.021,0.694 ± 0.042,0.537 ± 0.063,0.27 ± 0.068,0.181 ± 0.076,-0.0957 ± 0.088
Cc1ncc(-c2ccnc(Nc3ccc(S(C)(=O)=O)cc3)n2)n1C(C)C [AZD-5438],0.891 ± 0.036,0.628 ± 0.013,0.292 ± 0.086,-0.137 ± 0.12,-0.28 ± 0.15,-0.453 ± 0.2,0.884 ± 0.086,0.655 ± 0.14,0.354 ± 0.2,0.0675 ± 0.11,-0.117 ± 0.1,-0.372 ± 0.15,0.849 ± 0.1,0.633 ± 0.069,0.31 ± 0.071,-0.0453 ± 0.074,-0.205 ± 0.15,-0.308 ± 0.18,0.798 ± 0.13,0.373 ± 0.11,0.0311 ± 0.046,-0.106 ± 0.11,-0.277 ± 0.036,-0.438 ± 0.14,0.958 ± 0.02,0.797 ± 0.087,0.42 ± 0.18,-0.0201 ± 0.058,-0.199 ± 0.24,-0.188 ± 0.19,0.908 ± 0.037,0.679 ± 0.063,0.274 ± 0.069,-0.0129 ± 0.054,-0.104 ± 0.095,-0.186 ± 0.093
Cc1[nH]c(/C=C2\C(=O)Nc3ccc(S(=O)(=O)Cc4c(Cl)cccc4Cl)cc32)c(C)c1C(=O)N1CCC[C@@H]1CN1CCCC1,1.04 ± 0.071,1.06 ± 0.052,1.07 ± 0.087,1.06 ± 0.098,0.956 ± 0.047,0.012 ± 0.5,1.017 ± 0.0089,1.01 ± 0.052,1.003 ± 0.0079,0.976 ± 0.042,0.973 ± 0.035,0.22 ± 0.42,1.03 ± 0.045,1.02 ± 0.069,1.02 ± 0.043,0.997 ± 0.053,0.94 ± 0.023,-0.343 ± 0.3,1.06 ± 0.012,1.06 ± 0.073,1.05 ± 0.051,1.01 ± 0.059,0.923 ± 0.052,0.665 ± 0.17,0.991 ± 0.01,0.9827 ± 0.0045,0.9763 ± 0.0045,0.967 ± 0.012,0.9647 ± 0.0068,0.544 ± 0.43,1 ± 0.028,1.002 ± 0.003,1 ± 0.011,0.96 ± 0.032,0.954 ± 0.018,-0.131 ± 0.58
CO[C@H]1C[C@@H]2CC[C@@H](C)[C@@](O)(O2)C(=O)C(=O)N2CCCC[C@H]2C(=O)O[C@H]([C@H](C)C[C@@H]2CC[C@@H](O)[C@H](OC)C2)CC(=O)[C@H](C)/C=C(\C)[C@@H](O)[C@@H](OC)C(=O)[C@H](C)C[C@H](C)/C=C/C=C/C=C/1C [sirolimus],0.47 ± 0.069,0.449 ± 0.056,0.405 ± 0.12,0.389 ± 0.09,0.366 ± 0.082,0.353 ± 0.1,0.54 ± 0.03,0.514 ± 0.062,0.522 ± 0.056,0.524 ± 0.067,0.536 ± 0.061,0.587 ± 0.043,0.802 ± 0.049,0.781 ± 0.039,0.812 ± 0.048,0.787 ± 0.042,0.784 ± 0.07,0.8 ± 0.087,0.502 ± 0.075,0.502 ± 0.07,0.486 ± 0.048,0.49 ± 0.08,0.495 ± 0.048,0.456 ± 0.096,0.982 ± 0.074,0.999 ± 0.069,0.995 ± 0.082,0.997 ± 0.077,1 ± 0.089,0.986 ± 0.087,0.629 ± 0.089,0.619 ± 0.048,0.619 ± 0.055,0.632 ± 0.072,0.621 ± 0.066,0.62 ± 0.09
COc1cc(N2CCC(C(N)=O)CC2)ccc1Nc1nc(N)c(Cl)c(Nc2ccccc2S(=O)(=O)C(C)C)n1 [HG-5-88-01],0.548 ± 0.13,0.691 ± 0.1,0.678 ± 0.073,0.699 ± 0.08,0.641 ± 0.17,0.133 ± 0.15,0.747 ± 0.087,0.921 ± 0.066,0.937 ± 0.039,0.887 ± 0.022,0.846 ± 0.048,0.404 ± 0.013,0.794 ± 0.12,0.861 ± 0.12,0.791 ± 0.11,0.796 ± 0.14,0.783 ± 0.17,0.451 ± 0.089,0.635 ± 0.082,0.602 ± 0.04,0.493 ± 0.081,0.364 ± 0.071,0.208 ± 0.11,-0.0672 ± 0.054,0.933 ± 0.075,0.879 ± 0.09,0.766 ± 0.14,0.709 ± 0.16,0.627 ± 0.2,0.452 ± 0.11,0.942 ± 0.016,0.933 ± 0.04,0.885 ± 0.015,0.8637 ± 0.0081,0.839 ± 0.022,0.664 ± 0.034
